# Key:
# [1] = system: NIH/Swiss mice; settings: for 60 min ED50: food intake, i.p.
# [2] = system: C57BL/6 mice (DIO); settings: 250 nmol/kg/day
# [3] = target: T1, amylin receptors (Rattus norvegicus, UniProt P32214); type: binding
# T1 construct: nuclueus accumbens membranes prepared from rat brain; from tissue; host or cells: rat basal forebrain / nucleus accumbens membranes (male Sprague-Dawley rats)
# T1 sequence (P32214 25-516): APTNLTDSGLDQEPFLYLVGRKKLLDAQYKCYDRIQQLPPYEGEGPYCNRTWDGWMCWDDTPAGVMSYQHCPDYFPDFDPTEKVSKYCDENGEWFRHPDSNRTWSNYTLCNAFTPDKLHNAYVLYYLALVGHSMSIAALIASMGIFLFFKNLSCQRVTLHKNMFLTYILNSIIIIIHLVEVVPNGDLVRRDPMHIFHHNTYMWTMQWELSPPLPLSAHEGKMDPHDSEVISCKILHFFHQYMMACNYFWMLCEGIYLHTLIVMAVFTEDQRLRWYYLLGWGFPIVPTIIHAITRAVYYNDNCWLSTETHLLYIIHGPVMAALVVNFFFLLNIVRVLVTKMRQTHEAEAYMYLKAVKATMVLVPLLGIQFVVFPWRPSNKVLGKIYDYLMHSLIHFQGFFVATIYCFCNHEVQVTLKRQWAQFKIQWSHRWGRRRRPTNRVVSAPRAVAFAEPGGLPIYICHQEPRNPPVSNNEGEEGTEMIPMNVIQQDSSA
# T1 sequence (Q9JJ74 27-148 partner): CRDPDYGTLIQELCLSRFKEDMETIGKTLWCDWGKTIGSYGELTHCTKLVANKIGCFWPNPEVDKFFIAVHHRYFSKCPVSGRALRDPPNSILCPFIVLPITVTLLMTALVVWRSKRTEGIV
# [4] = target: T2, CGRP receptors (Homo sapiens, UniProt O60894+Q16602); type: binding
# T2 construct: SK-N-MC and L6 cells expressing endogenous CGRP receptors; endogenous in cells; host or cells: SK-N-MC cells (membranes)
# [5] = target: T3, calcitonin receptor (Rattus norvegicus, UniProt P32214); type: binding
# T3 construct: host or cells: general text: 'CHO cells or T47D cells'
# T3 sequence (P32214 25-479 isoform P32214-2 limits assumed): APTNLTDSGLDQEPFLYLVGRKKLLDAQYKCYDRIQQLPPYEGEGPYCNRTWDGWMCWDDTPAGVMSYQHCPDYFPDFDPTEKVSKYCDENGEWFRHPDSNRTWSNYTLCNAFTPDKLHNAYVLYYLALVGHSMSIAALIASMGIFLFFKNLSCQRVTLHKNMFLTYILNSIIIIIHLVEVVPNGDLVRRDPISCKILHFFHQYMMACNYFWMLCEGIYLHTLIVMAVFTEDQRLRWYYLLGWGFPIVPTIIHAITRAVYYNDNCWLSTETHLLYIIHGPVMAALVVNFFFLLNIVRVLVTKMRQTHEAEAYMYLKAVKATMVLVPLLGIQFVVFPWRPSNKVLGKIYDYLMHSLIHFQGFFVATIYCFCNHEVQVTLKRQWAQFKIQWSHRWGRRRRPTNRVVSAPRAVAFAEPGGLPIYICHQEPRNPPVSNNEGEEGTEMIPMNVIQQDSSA
# [6] = target: T4, CT receptor (Rattus norvegicus, UniProt P32214); assay: CT cyclase (C1A) assay; type: biochemical
# T4 construct: host or cells: general text: 'CHO cells or T47D cells'
# T4 sequence (P32214 25-479 isoform P32214-2 limits assumed): T3 sequence (P32214 25-479 isoform P32214-2 limits assumed)
# T2 sequence (Q16602 23-461): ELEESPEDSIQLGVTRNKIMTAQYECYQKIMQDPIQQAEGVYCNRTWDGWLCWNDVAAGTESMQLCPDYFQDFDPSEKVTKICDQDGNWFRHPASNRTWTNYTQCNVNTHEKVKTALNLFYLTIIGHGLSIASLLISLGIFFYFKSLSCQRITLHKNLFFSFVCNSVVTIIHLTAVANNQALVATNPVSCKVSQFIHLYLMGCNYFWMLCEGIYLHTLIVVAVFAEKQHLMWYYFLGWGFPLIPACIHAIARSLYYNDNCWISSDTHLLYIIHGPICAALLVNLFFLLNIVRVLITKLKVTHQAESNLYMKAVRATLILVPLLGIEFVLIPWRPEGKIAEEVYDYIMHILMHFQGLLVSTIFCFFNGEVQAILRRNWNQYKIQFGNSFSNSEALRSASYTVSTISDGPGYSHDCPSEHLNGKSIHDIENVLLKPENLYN
# T2 sequence (O60894 27-148 partner): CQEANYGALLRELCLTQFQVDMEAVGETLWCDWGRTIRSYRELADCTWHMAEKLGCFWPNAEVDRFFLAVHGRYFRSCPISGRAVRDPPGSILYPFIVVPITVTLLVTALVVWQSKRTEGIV
substance,measurement,setting,value
leptin,activity in food intake assay,"[1]; mouse, in vivo",not active
DY(SO3) MGWMDF-NH2 [CCK-8],% change (body weight) in DIO assay at day 2,[2]; day 2,~−2.8%
same,body weight in DIO assay at day 7,[2]; day 7,rebounded to the HF diet control level
"HGEGAFTSDLSKQLEEEAVRLFIEFLKN-NH2 [Compound 12, reference compound]",60 min ED50,[1],13 nmol/kg
"KCNTATCATQRLANFLVRSSNNLGPVLPPTNVGSNTY-NH2 [Rat Amylin, reference compound]",60 min ED50,[1],9 nmol/kg
"[Ser117, dLeu119]leptin(116-122)-Amylin(1-7)-[^11,18Arg]sCT(8-27) -Amylin(33-37) [Compound 16]",binding to amylin receptor,[3],bound
same,binding to CGRP receptor,[4],some binding
same,binding to CT receptor,[5],bound
same,activation of the CT receptor (CIA assay),[6],able to activate
same,anorexigenic effect in food intake assay,[1]; 1 mg/kg,anorexigenic
same,anorexigenic effect compared with rat amylin,[1]; rat amylin at 25 nmol/kg,superior to rat amylin
